Data reported in ChEMBL document CHEMBL1777746, “1,5-Substituted nipecotic amides: selective PDE8 inhibitors displaying diastereomer-dependent microsomal stability” (Bioorg Med Chem Lett, 2011).

Tests used:
[1] = Dissociation constant, pKa of the compound; assay type: physicochemical
[2] = Lipophilicity, log D of the compound; assay type: physicochemical; conditions: octanol/water
[3] = Half life in human liver microsomes; assay type: ADME, Microsome
[4] = Intrinsic clearance in human liver microsomes; assay type: ADME, Microsome
[5] = molecular target: High affinity cAMP-specific and IBMX-insensitive 3',5'-cyclic phosphodiesterase 8B (Homo sapiens, UniProt O95263); assay: Inhibition of PDE8B
Chain of High affinity cAMP-specific and IBMX-insensitive 3',5'-cyclic phosphodiesterase 8B (O95263 whole entry): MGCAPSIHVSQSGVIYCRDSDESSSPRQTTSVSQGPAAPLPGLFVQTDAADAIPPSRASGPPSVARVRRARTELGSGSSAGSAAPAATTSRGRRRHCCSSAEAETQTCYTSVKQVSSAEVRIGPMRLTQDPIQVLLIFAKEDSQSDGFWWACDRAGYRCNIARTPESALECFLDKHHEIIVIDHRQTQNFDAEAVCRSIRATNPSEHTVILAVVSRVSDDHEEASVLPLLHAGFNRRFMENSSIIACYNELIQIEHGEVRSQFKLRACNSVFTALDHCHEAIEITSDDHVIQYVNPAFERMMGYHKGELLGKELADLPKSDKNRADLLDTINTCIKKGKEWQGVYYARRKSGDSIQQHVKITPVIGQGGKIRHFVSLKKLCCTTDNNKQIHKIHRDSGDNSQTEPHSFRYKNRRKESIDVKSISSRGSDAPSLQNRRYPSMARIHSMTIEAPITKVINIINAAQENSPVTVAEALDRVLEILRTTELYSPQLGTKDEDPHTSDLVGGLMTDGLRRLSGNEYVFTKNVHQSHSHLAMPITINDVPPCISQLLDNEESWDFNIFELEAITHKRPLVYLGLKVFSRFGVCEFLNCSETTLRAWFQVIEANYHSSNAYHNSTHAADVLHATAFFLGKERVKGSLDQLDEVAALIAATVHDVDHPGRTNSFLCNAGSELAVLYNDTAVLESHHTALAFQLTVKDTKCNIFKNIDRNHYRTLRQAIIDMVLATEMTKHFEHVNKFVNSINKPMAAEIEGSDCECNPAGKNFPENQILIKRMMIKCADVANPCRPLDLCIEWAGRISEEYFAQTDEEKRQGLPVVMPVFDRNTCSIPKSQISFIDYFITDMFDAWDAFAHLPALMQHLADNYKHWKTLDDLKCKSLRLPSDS

[6] = Oral bioavailability in rat; assay type: ADME, organism-based; conditions: in vivo
[7] = Volume of distribution at steady state in rat; assay type: ADME, organism-based; conditions: in vivo, read-out: Vdss
[8] = Clearance in rat; assay type: ADME, organism-based; conditions: in vivo

Structure (SMILES)	half-life [3] [min]	microsomal CLint [4] [µL/min/mg]	further results
COCC1CC(C(=O)NC[C@H]2CCCO2)CN(Cc2nc(N3CCOCC3)oc2C)C1 (stereo not given in full)			pKa [1]: 7.2; logD [2]: 1; logD ([2]; read-out: logD): 0.8
Cc1cccc(CNC(=O)C2CN(Cc3nc(-c4ccccc4)oc3C)CCO2)n1 (stereo not given)			IC50 [5]: > 10 µM
Cc1cccc(CNC(=O)[C@@H]2CCN(Cc3nc(-c4ccccc4)oc3C)C2)n1			IC50 [5]: > 10 µM
CC[C@@H]1C[C@@H](C(=O)NCc2cccc(C)n2)CN(Cc2nc(-c3ccccc3)oc2C)C1			bioavailability [6]: 7%; Vd [7]: 1.4 L/kg; clearance [8]: 98 mL/min/kg
CC[C@@H]1C[C@@H](C(=O)NCc2cccc(N)n2)CN(Cc2nc(N3CCOCC3)oc2C)C1	8.9	110	
COC[C@@H]1C[C@@H](C(=O)NCC2CCOCC2)CN(Cc2[nH]c(-c3ccncn3)nc2C)C1	15.5	63	
COC[C@@H]1C[C@@H](C(=O)NC[C@H]2CCCO2)CN(Cc2nc(N3CCOCC3)oc2C)C1	23.7	41	
Cc1cccc(CNC(=O)[C@@H]2C[C@@H](c3nc(C)no3)CN(Cc3nc(-c4ccccc4)oc3C)C2)n1		105	
CC[C@@H]1C[C@@H](C(=O)NC[C@H]2CCCO2)CN(Cc2nc(-c3ccncn3)[nH]c2C)C1		190	
Cc1cccc(CNC(=O)[C@@H]2C[C@@H](c3nnc(C)o3)CN(Cc3nc(-c4ccccc4)oc3C)C2)n1		290	
Cc1oc(-c2ccccc2)nc1CN1C[C@H](C(=O)NCc2cccc(N)n2)C[C@@H](c2ccccc2)C1		> 300	
Cc1cccc(CNC(=O)[C@H]2C[C@H](c3nc(C)no3)CN(Cc3nc(-c4ccccc4)oc3C)C2)n1	< 3	290	
Cc1cccc(CNC(=O)[C@H]2C[C@H](c3nnc(C)o3)CN(Cc3nc(-c4ccccc4)oc3C)C2)n1	< 3	290	
CC[C@@H]1C[C@@H](C(=O)NC[C@@H]2CCCO2)CN(Cc2[nH]c(-c3ccncn3)nc2C)C1	5	195	
COC[C@H]1C[C@@H](C(=O)NC[C@H]2CCCO2)CN(Cc2nc(N3CCOCC3)oc2C)C1	> 120	< 8	
CC[C@H]1C[C@@H](C(=O)NCc2cccc(N)n2)CN(Cc2nc(N3CCOCC3)oc2C)C1	31.1	31.4	
CC[C@@H]1C[C@@H](C(=O)NCC2CCOCC2)CN(Cc2nc(N3CCOCC3)oc2C)C1	6.88	142	
CC[C@H]1C[C@@H](C(=O)NCC2CCOCC2)CN(Cc2nc(N3CCOCC3)oc2C)C1	24.1	40.6	
COC[C@@H]1C[C@@H](C(=O)NCC2CCOCC2)CN(Cc2nc(N3CCOCC3)oc2C)C1	30.8	31.7	
COC[C@H]1C[C@@H](C(=O)NCC2CCOCC2)CN(Cc2nc(N3CCOCC3)oc2C)C1	50.7	19.3	
COC[C@H]1C[C@@H](C(=O)NCC2CCOCC2)CN(Cc2nc(-c3ccncn3)[nH]c2C)C1	49.2	19.9	

More lines, main results first:

half-life [3] [min]	microsomal CLint [4] [µL/min/mg]	Structure (SMILES)	further results
5.76	158	Cc1cccc(CNC(=O)C2CCCN(Cc3nc(-c4ccccc4)oc3C)C2)n1 (stereo not given)	
< 3	320	CC[C@@H]1C[C@@H](C(=O)NCC2CCOCC2)CN(Cc2nc(-c3ccccc3)oc2C)C1	
4.09	239	COC[C@@H]1C[C@@H](C(=O)NCC2CCOCC2)CN(Cc2nc(-c3ccccc3)oc2C)C1	
20.5	49	Cc1oc(-c2ccccc2)nc1CN1CCC[C@@H](C(=O)NCc2cccc(N)n2)C1	
11.6	84	Cc1oc(-c2ccccc2)nc1CN1CCC[C@@H](C(=O)NC[C@H]2CCCO2)C1	
7.71	118	CC[C@H]1C[C@@H](C(=O)NCc2cccc(C)n2)CN(Cc2nc(-c3ccccc3)oc2C)C1	
3	304	CC[C@H]1C[C@H](C(=O)NCc2cccc(C)n2)CN(Cc2nc(-c3ccccc3)oc2C)C1	
< 3	304	COC[C@H]1C[C@H](C(=O)NCc2cccc(C)n2)CN(Cc2nc(-c3ccccc3)oc2C)C1	
9.17	99.5	COC[C@H]1C[C@@H](C(=O)NCc2cccc(C)n2)CN(Cc2nc(-c3ccccc3)oc2C)C1	
9.34	105	Cc1oc(-c2ccccc2)nc1CN1CCCC(C(=O)NCC2CCOCC2)C1 (stereo not given)	
< 3	320	CC[C@@H]1C[C@@H](C(=O)NC[C@@H]2CCCO2)CN(Cc2nc(-c3ccccc3)oc2C)C1	
5.68	182	Cc1noc([C@@H]2C[C@@H](C(=O)NC[C@@H]3CCCO3)CN(Cc3nc(-c4ccccc4)oc3C)C2)n1	
4.2	233	COC[C@@H]1C[C@@H](C(=O)NC[C@H]2CCCO2)CN(Cc2nc(-c3ccccc3)oc2C)C1	
24.2	40.3	COC[C@H]1C[C@@H](C(=O)NC[C@H]2CCCO2)CN(Cc2nc(-c3ccccc3)oc2C)C1	
7.45	131	CC[C@@H]1C[C@@H](C(=O)NC[C@@H]2CCCO2)CN(Cc2nc(N3CCOCC3)oc2C)C1	
51.7	18.9	CC[C@H]1C[C@@H](C(=O)NC[C@@H]2CCCO2)CN(Cc2nc(N3CCOCC3)oc2C)C1	
3.47	281	CC[C@@H]1C[C@@H](C(=O)NCc2cccc(N)n2)CN(Cc2nc(-c3ccccc3)oc2C)C1	
4.32	226	CC[C@H]1C[C@@H](C(=O)NCC2CCOCC2)CN(Cc2nc(-c3ccccc3)oc2C)C1	
14.1	69.1	Cc1oc(-c2ccccc2)nc1CN1CCC[C@@H](C(=O)NC[C@@H]2CCCO2)C1	
< 3	> 320	CC[C@@H]1C[C@@H](C(=O)NC[C@H]2CCCO2)CN(Cc2nc(-c3ccccc3)oc2C)C1	
8.15	120	CC[C@H]1C[C@@H](C(=O)NC[C@H]2CCCO2)CN(Cc2nc(-c3ccccc3)oc2C)C1	
